Data as given in patent US5922742A, “Pyridinyl-2-cyclopenten-1-ones as selective cyclooxygenase-2 inhibitors” (Merck Frosst Canada, priority 1997, dated 1999).

How the values were obtained:
[1] = target: T1, Cox-2 (Homo sapiens, UniProt P35354); test: Human whole blood assay, COX-2 (LPS-induced PGE2 production); assay type: cell-based; conditions: for Selectivity Ratio: Cox-1 U937 IC50 / Cox-2 Whole Blood IC50; for IC50: human whole blood, LPS-induced PGE2, 24 hours at 37° C
T1 construct: active only after incubation of human whole blood with LPS, which induces COX-2; endogenous in cells; host or cells: fresh heparinized human whole blood from volunteers, incubated with LPS
T1 sequence (P35354 18-604): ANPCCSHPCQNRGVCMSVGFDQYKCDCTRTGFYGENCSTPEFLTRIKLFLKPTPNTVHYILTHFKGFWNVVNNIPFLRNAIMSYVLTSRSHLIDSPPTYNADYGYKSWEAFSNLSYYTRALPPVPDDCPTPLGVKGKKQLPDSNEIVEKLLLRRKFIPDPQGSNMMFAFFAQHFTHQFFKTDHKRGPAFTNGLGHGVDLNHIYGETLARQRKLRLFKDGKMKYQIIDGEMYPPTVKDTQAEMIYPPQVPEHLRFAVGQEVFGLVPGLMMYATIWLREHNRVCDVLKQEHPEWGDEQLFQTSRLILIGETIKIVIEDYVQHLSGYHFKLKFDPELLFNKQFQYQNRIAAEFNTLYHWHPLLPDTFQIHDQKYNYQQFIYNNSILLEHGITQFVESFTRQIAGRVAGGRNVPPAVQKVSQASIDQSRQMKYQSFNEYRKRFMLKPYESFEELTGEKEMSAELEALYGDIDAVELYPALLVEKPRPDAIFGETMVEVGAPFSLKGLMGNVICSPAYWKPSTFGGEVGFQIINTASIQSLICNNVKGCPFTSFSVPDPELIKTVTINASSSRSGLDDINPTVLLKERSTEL
Excerpt: As well, platelets in whole blood contain a large amount of the COX-1 enzyme. Immediately following blood clotting, platelets are activated through a thrombin-mediated mechanism. This reaction results in the production of thromboxane B2 (TxB2) via activation of COX-1. Thus, the effect of test compounds on TxB2 levels following blood clotting can be examined and used as an index for COX-1 activity. Therefore, the degree of selectivity by the test compound can be determined by measuring the levels of PGE2 after LPS induction (COX-2) and TxB2 following blood clotting (COX-1) in the same assay.
A. COX-2 (LPS-induced PGE2 production)
Fresh blood is collected in heparinized tubes by venipuncture from both male and female volunteers. The subjects have no apparent inflammatory conditions and have not taken any NSAIDs for at least 7 days prior to blood collection. Plasma is immediately obtained from a 2 mL blood aliquot to use as blank (basal levels of PGE2). The remaining blood is incubated with LPS (100 μg/ml final concentration, Sigma Chem, #L-2630 from E. coli; diluted in 0.1% BSA (Phosphate buffered saline) for 5 minutes at room temperature. Five hundred μL aliquots of blood are incubated with either 2μL of vehicle (DMSO) or 2 μL of a test compound at final concentrations varying from […] to 30μM for 24 hours at 37° C. At the end of the incubation, the blood is centrifuged at 12,000×g for 5 minutes to obtain plasma. A 100μL aliquot of plasma is mixed with 400 μL of methanol for protein precipitation. The supernatant is obtained and is assayed for PGE2 using a radioimmunoassay kit (Amersham, RPA#530) after conversion of PGE2 to its methyl oximate derivative according to the manufacturer's procedure. […]

[2] = target: T2, Cox-1 (Homo sapiens, UniProt P23219); test: Cox-1 U937 (PGE2 synthesis); assay type: cell-based
T2 construct: human U-937 cells (which specifically express COX-1); endogenous in cells; host or cells: human U-937 cells (whole cells or their microsomes)
Procedure: Compounds are tested as inhibitors of cyclooxygenase activity in whole cell cyclooxygenase assays. Both of these assays measure prostaglandin E2 synthesis in response to AA, using a radioimmunoassay. Cells used for these assays are human osteosarcoma 143 cells (which specifically express COX-2) and human U-937 cells (which specifically express COX-1). […] For cyclooxygenase assays, osteosarcoma cells are cultured in 1 mL of media in 24-well multidishes (Nunclon) until confluent (1-2 ×10^5 cells/well). U-937 cells are grown in spinner flasks and resuspended to a final density of 1.5×10^6 cells/mL in 24well multidishes (Nunclon). Following washing and resuspension of osteosarcoma and U-937 cells in 1 mL of HBSS, 1 μL of a DMSO solution of test compound or DMSO vehicle is added, and samples gently mixed. All assays are performed in triplicate. […] AA (peroxide-free, Cayman Chemical) is prepared as a 10 mM stock solution in ethanol and further diluted 10-fold in HBSS. […] Control samples are incubated with ethanol vehicle instead of AA. Samples are again gently mixed and incubated for a further 10 min. at 37° C. For osteosarcoma cells, reactions are then stopped by the addition of 100 μL of 1N HCl, with mixing and by the rapid removal of the solution from cell monolayers. For U-937 cells, reactions are stopped by the addition of 100 μL of 1N HCl, with mixing. Samples are then neutralized by the addition of 100 μL of 1N NaOH and PGE2 levels measured by radioimmunoassay. Assay of COX-1 Activity from U937 cell microsomes U 937 cells are pelleted by centrifugation at 500×g for 5 min and washed once with phosphate-buffered saline and repelleted. Cells are resuspended in homogenization buffer consisting of 0.1M Tris-HCl, pH 7.4, 10 mM EDTA, 2 μg/ml leupeptin, 2 μg/ml soybean trypsin inhibitor, 2 μg/ml aprotinin and 1 mM phenyl methyl sulfonyl fluoride. The cell suspension is sonicated 4 times for 10 sec and is centrifuged at 10,000×g for 10 min at 4° C. The supernatant is centrifuged at 100,000×g for 1 hr at 4° C. The 100,000×g microsomal pellet is resuspended in 0.1M Tris-HCl, pH 7.4, 10 mM EDTA to approximately 7 mg protein/ml and stored at -80° C. […] Assays are performed in duplicate in a final volume of 250 μl. Initially, 5 μl of DMSO vehicle or drug in DMSO are added to 20 μl of 0.1M Tris-HCl buffer, pH 7.4 containing 10 mM EDTA in wells of a 96-deepwell polypropylene titre plate. 200 μl of the microsomal preparation are then added and pre-incubated for 15 min at room temperature before addition of 25 μl of […] arachidonic acid in 0.1M Tris-HCl and 10 mM EDTA, pH 7.4. Samples are incubated for 40 min at room temperature and the reaction is stopped by the addition of 25 μl of 1N HCl. Samples are neutralized with 25 μl of 1N NaOH prior to quantitation of PGE2 content by radioimmunoassay (Dupont-NEN or Amersham assay kits). Cyclooxygenase activity is defined as the difference between PGE2 levels in samples incubated in the presence of arachidonic acid and ethanol vehicle. Compounds of the present invention are inhibitors of COX-2 and are thereby useful in the treatment of COX-2 mediated diseases as enumerated above. The activities of the compounds against cyclooxygenase may be seen in the representative results shown below. In the assay, inhibition is determined by measuring the amount of prostaglandin E2 (PGE2) synthesized in the presence of AA, COX-1 or COX-2 and a putative inhibitor. […]

[3] = test system: carrageenan-induced paw edema in rats; test: Rat paw edema assay (carrageenan); assay type: in vivo, Male Sprague-Dawley rats; conditions: po, 1 hr before carrageenan, paw volume 3 hr after
Procedure: Male Sprague-Dawley rats (150-200 g) are fasted overnight and are given, po, either vehicle (1% methocel or 5% Tween 80) or a test compound. One hr later, a line is drawn using a permanent marker at the level above the ankle in one hind paw to define the area of the paw to be monitored. The paw volume (V0) is measured using a plethysmometer (Ugo-Basile, Italy) based on the principle of water displacement. The animals are then injected subplantarly with 50 μt of 1% carrageenan solution in saline (FMC Corp, Maine) into the paw using an insulin syringe with a 25-gauge needle (i.e. 500 μg carrageenan per paw). Three hr later, the paw volume (V3) is measured and the increases in paw volume (V3 -V0) are calculated. The animals are sacrificed by CO2 asphyxiation and the absence or presence of stomach lesions scored. Data is compared with the vehicle-control values and percent inhibition calculated. All treatment groups are coded to eliminate observer bias.

T2 sequence (P23219 24-599): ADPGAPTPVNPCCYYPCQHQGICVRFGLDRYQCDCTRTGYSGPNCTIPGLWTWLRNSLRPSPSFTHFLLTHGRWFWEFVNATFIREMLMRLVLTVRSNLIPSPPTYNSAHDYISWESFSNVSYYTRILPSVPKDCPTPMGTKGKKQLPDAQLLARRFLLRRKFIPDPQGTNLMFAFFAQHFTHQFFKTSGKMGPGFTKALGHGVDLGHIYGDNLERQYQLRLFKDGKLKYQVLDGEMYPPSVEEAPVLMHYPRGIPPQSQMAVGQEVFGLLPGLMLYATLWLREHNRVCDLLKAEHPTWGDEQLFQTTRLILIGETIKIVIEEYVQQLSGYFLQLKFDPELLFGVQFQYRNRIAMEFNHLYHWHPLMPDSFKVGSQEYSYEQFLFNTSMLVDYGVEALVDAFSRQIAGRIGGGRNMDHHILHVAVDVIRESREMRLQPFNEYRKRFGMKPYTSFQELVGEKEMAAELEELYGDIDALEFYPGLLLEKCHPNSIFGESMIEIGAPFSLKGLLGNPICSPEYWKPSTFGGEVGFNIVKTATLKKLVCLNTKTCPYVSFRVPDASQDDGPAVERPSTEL

Structure (SMILES): CS(=O)(=O)c1ccc(C2=C(c3ccccc3)C(=O)CC2)cc1 [B]
- Selectivity Ratio [1]: 10
- IC50 [1]: 190 nM
- IC50 [2]: 1900 nM
- ED50 [3]: 10 mg/kg

Structure (SMILES): CS(=O)(=O)c1ccc(C2=C(c3cncc(Cl)c3)C(=O)CC2)cc1 [Example 2, 2-(5-Chloropyridin-3-yl)-3-(4-(methylsulfonyl)phenyl)-2-cyclopenten-1-one]
- IC50 [2]: > 100000 nM

Structure (SMILES): CS(=O)(=O)c1ccc(C2=C(c3ccc(Cl)cn3)C(=O)CC2)cc1 [Example 10, 2-(5-Chloro-2-pyridinyl)-3-(4-(methylsulfonyl)phenyl)-2-cyclopenten-1-one]
- Selectivity Ratio [1]: 78
- IC50 [1]: 460 nM
- IC50 [2]: 36000 nM
- ED50 [3]: 2.5 mg/kg

Structure (SMILES): CS(=O)(=O)c1ccc(C2=C(c3ccc4cccnc4c3)C(=O)OC2)cc1 [C]
- Selectivity Ratio [1]: 1
- IC50 [1]: 590 nM
- IC50 [2]: 600 nM

Structure (SMILES): CS(=O)(=O)c1ccc(C2=C(c3ccc(F)cc3)C(=O)CC2)cc1 [A]
- Selectivity Ratio [1]: 5
- IC50 [1]: 90 nM
- ED50 [3]: 3 mg/kg

Structure (SMILES): CS(=O)(=O)c1ccc(C2=C(c3cccnc3)C(=O)CC2)cc1 [Example 1, 3-(4-(Methylsulfonyl)phenyl)-2-(3-pyridinyl)-2-cyclopenten-1-one]
- Selectivity Ratio [1]: 52
- IC50 [1]: 580 nM
- IC50 [2]: 30000 nM
- ED50 [3]: 1.7 mg/kg
